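Briefly, cells in 96-well plates were exposed to five compound concentrations for 48 h, and endpoints were estimated by linear interpolation. Here, GI50 denotes the concentration required for 50% inhibition of growth.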 Activity calls are given as the source filed them. Rule as the data show it: active = GI50 up to about 1.1 µM and inactive = higher.
How the values were obtained:
Assay in all cases: NCI tumour cell line growth inhibition, 48 h
CCRF-CEM = tested on: CCRF-CEM
DMS-114 = tested on: DMS-114
HOP-62 = tested on: HOP-62
KM12 = tested on: KM12
NCI-H23 = tested on: NCI-H23
NCI-H522 = tested on: NCI-H522
OVCAR-3 = tested on: OVCAR-3
OVCAR-5 = tested on: OVCAR-5
OVCAR-8 = tested on: OVCAR-8
SF-295 = tested on: SF-295
SK-MEL-5 = tested on: SK-MEL-5
SNB-75 = tested on: SNB-75
TK-10 = tested on: TK-10
U-251 = tested on: U-251
UACC-62 = tested on: UACC-62
UO-31 = tested on: UO-31
EKVX = tested on: EKVX
NCI-H226 = tested on: NCI-H226
BT-549 = tested on: BT-549
MDA-MB-231 = tested on: MDA-MB-231

Measured: GI50

CCOC(=O)NC(=O)c1cn(CC(=O)NCC(=O)NCC(=O)NCCCN2CCN(CCCNC(=O)CNC(=O)CNC(=O)Cn3cc(C(=O)NC(=O)OCC)c(=O)[nH]c3=O)CC2)c(=O)[nH]c1=O
inactive: CCRF-CEM > 100 µM | DMS-114 > 100 µM | HOP-62 > 100 µM | KM12 > 100 µM | NCI-H23 > 100 µM | NCI-H522 > 100 µM | OVCAR-3 > 100 µM | OVCAR-5 > 100 µM | OVCAR-8 > 100 µM | SF-295 > 100 µM | SK-MEL-5 > 100 µM | SNB-75 > 100 µM | TK-10 > 100 µM | U-251 > 100 µM | UACC-62 > 100 µM | UO-31 > 100 µM

O=C1CCC2(O)c3ccccc3C2Cc2ccccc21 (stereo not drawn)
inactive: CCRF-CEM > 100 µM | DMS-114 > 100 µM | EKVX > 100 µM | HOP-62 > 100 µM | KM12 > 100 µM | NCI-H226 > 100 µM | NCI-H23 > 100 µM | OVCAR-3 > 100 µM | OVCAR-8 > 100 µM | SF-295 > 100 µM | SNB-75 63.8 µM | TK-10 > 100 µM | U-251 > 100 µM | UACC-62 > 100 µM

CC(C)(C)OC(=O)N1C[C@H](CC(=O)OCc2ccccc2)C[C@H]1C(=O)OCC(Cl)(Cl)Cl
inactive: BT-549 8.15 µM | CCRF-CEM 1.35 µM | EKVX 2.78 µM | HOP-62 22.8 µM | KM12 2.76 µM | MDA-MB-231 11.3 µM | NCI-H226 3.55 µM | NCI-H23 4.49 µM | NCI-H522 1.62 µM | OVCAR-3 3.43 µM | OVCAR-5 20.2 µM | OVCAR-8 6.07 µM | SF-295 2.38 µM | SK-MEL-5 2.24 µM | SNB-75 10.5 µM | TK-10 15.9 µM | U-251 2.56 µM | UACC-62 5.6 µM | UO-31 3.94 µM

COc1ccc(Nc2c(C#N)c3n(c4ccccc24)c2ccccc2[n+]3C)cc1OC
inactive: BT-549 7.33 µM | CCRF-CEM > 100 µM | EKVX 2.93 µM | HOP-62 3.24 µM | KM12 3.98 µM | MDA-MB-231 1.73 µM | NCI-H226 3.05 µM | NCI-H23 2.94 µM | NCI-H522 3.16 µM | OVCAR-3 3.52 µM | OVCAR-5 2.25 µM | OVCAR-8 1.67 µM | SF-295 2.77 µM | SK-MEL-5 3.49 µM | SNB-75 3.43 µM | TK-10 2.56 µM | U-251 2.7 µM | UACC-62 3.15 µM | UO-31 1.3 µM

CCCN(C(=O)c1c(Cl)nnc(Cl)c1C(=O)c1cc(Cl)nnc1Cl)c1cc(Cl)nnc1Cl
inactive: BT-549 9.73 µM | CCRF-CEM 2.92 µM | EKVX 12.7 µM | HOP-62 19 µM | KM12 11.5 µM | MDA-MB-231 15.7 µM | NCI-H226 18.5 µM | NCI-H23 5.77 µM | NCI-H522 3.24 µM | OVCAR-3 10.9 µM | OVCAR-5 21 µM | OVCAR-8 2.29 µM | SF-295 19.9 µM | SK-MEL-5 9.18 µM | SNB-75 15.3 µM | TK-10 18 µM | U-251 16.2 µM | UACC-62 10.6 µM | UO-31 17 µM

O=C1CS(=O)(=O)C(c2cccc(Oc3ccccc3)c2)N1c1cccc(Cl)c1 (stereo not drawn)
inactive: BT-549 29.9 µM | CCRF-CEM 26.1 µM | EKVX 17.6 µM | HOP-62 40.2 µM | KM12 26.5 µM | MDA-MB-231 29.1 µM | NCI-H226 27.7 µM | NCI-H23 33.5 µM | NCI-H522 14.9 µM | OVCAR-3 24.5 µM | OVCAR-5 55.1 µM | OVCAR-8 22.1 µM | SF-295 33.4 µM | SK-MEL-5 15.7 µM | SNB-75 36.3 µM | TK-10 26.6 µM | U-251 21.2 µM | UACC-62 12.5 µM | UO-31 37.1 µM

O=C1c2cc([N+](=O)[O-])cnc2S(=O)(=O)N1c1ccc(Br)cc1
inactive: BT-549 > 100 µM | CCRF-CEM > 100 µM | EKVX > 100 µM | HOP-62 > 100 µM | KM12 > 100 µM | MDA-MB-231 > 100 µM | NCI-H226 > 100 µM | NCI-H23 > 100 µM | NCI-H522 > 100 µM | OVCAR-3 > 100 µM | OVCAR-5 > 100 µM | OVCAR-8 > 100 µM | SF-295 > 100 µM | SK-MEL-5 > 100 µM | SNB-75 > 100 µM | TK-10 > 100 µM | U-251 > 100 µM | UACC-62 > 100 µM | UO-31 > 100 µM

N/N=C(/C(=O)Nc1cccc(Cl)c1)C(C(=O)c1ccc(O)cc1O)C1OC(=O)c2ccccc21 (stereo not drawn)
inactive: CCRF-CEM 35.1 µM | DMS-114 > 100 µM | EKVX > 100 µM | HOP-62 > 100 µM | KM12 > 100 µM | NCI-H226 95.1 µM | NCI-H23 65.5 µM | NCI-H522 71 µM | OVCAR-3 > 100 µM | OVCAR-5 > 100 µM | OVCAR-8 > 100 µM | SF-295 85.9 µM | SK-MEL-5 > 100 µM | TK-10 > 100 µM | U-251 46.9 µM | UACC-62 52.8 µM | UO-31 > 100 µM

CC(C)CC(=O)CC(O)C(Cl)(Cl)Cl (stereo not drawn)
inactive: BT-549 > 100 µM | CCRF-CEM > 100 µM | EKVX > 100 µM | HOP-62 > 100 µM | KM12 > 100 µM | MDA-MB-231 > 100 µM | NCI-H226 > 100 µM | NCI-H23 > 100 µM | NCI-H522 3.95 µM | OVCAR-3 > 100 µM | OVCAR-5 > 100 µM | OVCAR-8 > 100 µM | SF-295 > 100 µM | SK-MEL-5 > 100 µM | SNB-75 > 100 µM | TK-10 > 100 µM | U-251 > 100 µM | UACC-62 > 100 µM | UO-31 > 100 µM

COC(=O)CCCCCOS(=O)(=O)c1ccc(C)cc1
inactive: CCRF-CEM > 100 µM | DMS-114 > 100 µM | EKVX > 100 µM | KM12 > 100 µM | NCI-H23 > 100 µM | NCI-H522 > 100 µM | OVCAR-3 > 100 µM | OVCAR-5 > 100 µM | OVCAR-8 > 100 µM | SF-295 > 100 µM | SK-MEL-5 > 100 µM | SNB-75 > 100 µM | TK-10 > 100 µM | U-251 > 100 µM | UACC-62 > 100 µM | UO-31 > 100 µM

COC(=O)C1CCC(C)CC1=O (stereo not drawn)
inactive: CCRF-CEM > 100 µM | DMS-114 > 100 µM | EKVX > 100 µM | HOP-62 99.8 µM | KM12 > 100 µM | NCI-H23 > 100 µM | NCI-H522 > 100 µM | OVCAR-3 > 100 µM | OVCAR-5 > 100 µM | OVCAR-8 > 100 µM | SF-295 > 100 µM | SK-MEL-5 > 100 µM | SNB-75 > 100 µM | TK-10 > 100 µM | U-251 > 100 µM | UACC-62 > 100 µM | UO-31 > 100 µM

CC(=O)O[C@H]1CC[C@@]2(C)C(=CC[C@@H]3[C@@H]2CC[C@]2(C)NC(=O)/C(=C\c4ccccc4)C[C@@H]32)C1
inactive: BT-549 18.6 µM | CCRF-CEM 16.5 µM | EKVX 14.9 µM | HOP-62 13.2 µM | KM12 18.1 µM | MDA-MB-231 22.6 µM | NCI-H226 18.3 µM | NCI-H23 15.9 µM | NCI-H522 15.6 µM | OVCAR-3 12.9 µM | OVCAR-5 17.7 µM | OVCAR-8 20.5 µM | SF-295 17.8 µM | SK-MEL-5 10.8 µM | SNB-75 19.1 µM | TK-10 29.9 µM | U-251 18.1 µM | UACC-62 14 µM | UO-31 15.7 µM

Cc1n[nH]c(=O)n1/N=C/c1ccc([N+](=O)[O-])o1
inactive: BT-549 21.8 µM | CCRF-CEM 13.5 µM | EKVX 17.5 µM | HOP-62 26.9 µM | KM12 13.7 µM | MDA-MB-231 18.2 µM | NCI-H226 15.6 µM | NCI-H23 13.8 µM | NCI-H522 3.13 µM | OVCAR-3 5.58 µM | OVCAR-5 21.4 µM | OVCAR-8 15.2 µM | SF-295 25.8 µM | SK-MEL-5 3.56 µM | SNB-75 32.4 µM | TK-10 18.1 µM | U-251 21.7 µM | UACC-62 13.1 µM | UO-31 14.5 µM

COc1ccc(CN(O)C2C(CO)OC(n3cc(I)c(=O)[nH]c3=O)C2O)cc1 (stereo not drawn)
inactive: CCRF-CEM > 100 µM | DMS-114 > 100 µM | EKVX > 100 µM | HOP-62 > 100 µM | KM12 > 100 µM | NCI-H23 > 100 µM | NCI-H522 > 100 µM | OVCAR-3 > 100 µM | OVCAR-5 > 100 µM | OVCAR-8 > 100 µM | SF-295 > 100 µM | SK-MEL-5 > 100 µM | SNB-75 > 100 µM | TK-10 > 100 µM | U-251 > 100 µM | UACC-62 > 100 µM | UO-31 > 100 µM

O=C1OC(=O)c2cc(S(=O)(=O)c3ccc4c(c3)C(=O)OC4=O)ccc21
inactive: BT-549 > 100 µM | CCRF-CEM > 100 µM | EKVX > 100 µM | HOP-62 > 100 µM | KM12 > 100 µM | MDA-MB-231 > 100 µM | NCI-H226 > 100 µM | NCI-H23 > 100 µM | NCI-H522 > 100 µM | OVCAR-3 > 100 µM | OVCAR-5 > 100 µM | OVCAR-8 > 100 µM | SF-295 > 100 µM | SK-MEL-5 > 100 µM | SNB-75 26.1 µM | TK-10 > 100 µM | U-251 > 100 µM | UACC-62 > 100 µM | UO-31 > 100 µM
